According to patent US8710097B2, “Flavonoid dimers and methods of making and using such” (The Hong Kong Polytechnic University, priority 2006, dated 2014):

Key:
Ld39 amastigotes = assay: Total antimony (SSG) accumulation assay using ICP-MS; type: cell-based, Leishmania donovani; conditions: 3 hr
Method: (§1) Amastigotes of L. donovani was prepared by spinning down 50 mL 4-day-old promastigotes (late log phase), and transferred to an axenic medium containing M199 Medium (Gibco), 0.5% Trypto casein soya, 3 mM L-cysteine, 15 mM D-glucose, 5 mM L-glutamine, 4 mM NaHCO3, 25 mM HEPES, 0.01 mM bathocuproine-disulfonic acid and 0.023 mM Hemin. Cells were then incubated at 37° C. for 24 hr. Amastigotes became ovoid in shape and were ready for drug accumulation assay.
(§2) The effect of flavonoid dimers on accumulation of antimony sodium stibogluconate (SSG) was investigated. Amastigotes are more susceptible to SSG and therefore accumulate more SSG as compared to promastigotes. Therefore, amastigotes were chosen for studying the Sb accumulation assay. […] After 3 hour incubation, the parasites were washed thrice with cold PBS, pH 7.4. The cell pellet was dissolved in 200 μL concentrated nitric acid for 24 hr at room temperature. The sample was diluted to 3 mL with distilled water, resulting in a final concentration of about 5 ppb of total Sb solution. It was then injected to ICP-MS (Perkin-Elmer) for quantitation. Antimony was measured at its m/z ratios of 121 and 123 with indium (In, m/z=115) as an internal standard. All chemicals used for the pretreatment of the samples were of at least analytical grade and the distilled water used directly as received without further purification.

LdAG83 amastigotes = assay: as above; type: cell-based, Leishmania donovani; conditions: 9d 30 μM or 60 μM
Method: as §1, §2

Ld2001 amastigotes = assay: as above; type: cell-based, Leishmania donovani; conditions: 3 hr
Method: as §1, §2

[1] = system: LeMDR1 overexpressed L. enriettii (LeV160); assay: Leishmania cell viability (MTS) assay; type: cell-based, Leishmania enriettii; conditions: LeV160
Excerpt: (§3) Cell lines and Cell Culture.

[2] = system: LeMDR1 knockout (LeMDR1 −/−) L. enriettii; assay: Leishmania cell viability (MTS) assay; type: cell-based, Leishmania enriettii; conditions: LeMDR1 −/−
Excerpt: as §3

[3] = system: wild type L. enriettii (Le); assay: Leishmania cell viability (MTS) assay; type: cell-based, Leishmania enriettii; conditions: Le wild type
Method: Cell lines and Cell Culture. Promastigotes of Leishmania enriettii (LePentR50, Le wild type, LeMDR1 −/− and LeMDR1-overexpressed LeV160 mutants) and Leishmania donovani (LdAG83, Ld2001 and Ld39) were employed in this study. The former is a natural infective strain of guinea pig and the latter is a clinical strain, which may cause visceral leishmaniasis in human. Both strains were cultured in Schneider's Drosophila Medium (Invitrogen), pH 6.9 supplemented with 10% (v/v) heat inactivated fetal calf serum (Hyclone) with 4 mM glutamine (Sigma) and 25 μg/mL gentamicin solution (Invitrogen), at 27° C. for 4 days (Cloning and functional analysis of an extrachromosomally amplified multidrug resistance-like gene in Leishmania enriettii. Mol. Biochem. Parasitol 1993, 60, 195-208).
Promastigotes of LeV160 were culture in the presence of 160 μg/mL vinblastine. No pentamidine and vinblastine (Sigma) was added to the Le wild type and LeMDR1 −/− mutant.
The viability of promastigotes was determined by the Cell Titer 96® Aqueous Assay (Promega) that employs a tetrazolium compound (MTS) and electron coupling reagent, phenazine methosulfate (PMS). Promastigotes were seeded into 96-well flat bottom microtiter plate at 1×10^5 cells per well in a final volume of 100 μL medium. To determine the cytotoxic effects of flavonoid dimers to the parasites, various concentrations of flavonoid dimers were added to the promastigotes. To determine the reversal effects of flavonoid dimers with different spacer lengths, various concentrations of antileishmanial drugs, one of pentamidine or SSG, vinblastine and puromycin was added to the wells with or without flavonoid dimers. The parasites were incubated at 27° C. for 72 hrs. Each concentration of antileishmanials with or without the flavonoid dimers was tested in triplicates in each experiment. A 2 mg/mL MTS and 0.92 mg/mL PMS were mixed at a ratio of 20:1 (MTS: PMS). […] After 4 hrs of incubation, the OD values were determined at 490 nm using automatic microtiter plate reader (Bio-Rad).

[4] = system: wild type L. donovani LdAG83 promastigotes; assay: Leishmania cell viability (MTS) assay; type: cell-based, Leishmania donovani
[5] = system: SSG-resistant L. donovani Ld39 promastigotes; assay: microbe, parasite or virus in culture; type: cell-based, Leishmania donovani
P388/ADR cells = assay: Doxorubicin accumulation; type: cell-based, murine; conditions: 10 μM doxorubicin, 2 h, FIG. 11A
[6] = system: pentamidine-resistant L. enriettii LePentR50 promastigotes; assay: microbe, parasite or virus in culture

## O=c1cc(-c2ccc(OCCOCCOCCOCCOc3ccc(-c4cc(=O)c5c(O)cc(O)cc5o4)cc3)cc2)oc2cc(O)cc(O)c12 [Compound 9d, 1,13-Bis[4′-((5,7-dihydroxy)-4H-chromen-4-on-2-yl)phenyl]-1,4,7,10,13-pentaoxamidecane]
Ld39 amastigotes; 30 μM 9d
  SSG accumulation, % of that of LdAG83: 74%
Ld39 amastigotes; 60 μM 9d
  SSG accumulation, % of that of LdAG83: 90%
LdAG83 amastigotes
  accumulation of SSG versus cells without treatment: did not significantly differ
Ld2001 amastigotes; 30 μM 9d
  SSG accumulation, % of that of LdAG83: 83%
Ld2001 amastigotes; 60 μM 9d
  SSG accumulation, % of that of LdAG83: 69%
[1]
  decrease of IC50 of pentamidine: ~1.9 fold
[2]
  pentamidine sensitization: 4.1 fold
[3]
  decrease of IC50 of pentamidine: about 3 fold
[4]; LdAG83, up to 6 μM, FIG. 17C
  modulating effect on SSG sensitivity: did not have any modulating effect
[4]; SSG-sensitive wild type LdAG83, FIG. 14D
  modulatory effect on SSG sensitivity: no modulatory effect
[4]; cytotoxicity of compound alone, 72 hrs, read-out: IC50(μM) of synthetic flavonoid, LdAG83
  IC50: 7 ± 0.4 µM
[5]; Ld39, 4 μM, FIGS. 17A and 17B
  reduction of SSG resistance level: back to the level of the sensitive strain
[5]; Ld39, FIG. 18B
  SSG sensitization: 3.9 fold
[5]; cytotoxicity of compound alone, 72 hrs, read-out: IC50(μM) of synthetic flavonoid, Ld39
  IC50: 10 ± 0.9 µM
P388/ADR cells
  increase of doxorubicin accumulation, folds of control: about 2 folds
[6]; LePentR50, 60 μM 9d, 3 hours, data not shown
  cytotoxicity under accumulation conditions: did not result in any cytotoxicity
[6]; LePentR50, FIG. 18A
  pentamidine sensitization: ~3.7 fold
[6]; LePentR50, up to 6 μM
  toxicity of modulator alone: No toxicity
[6]; read-out: EC50 (concentration resulting in 50% survival of LePentR50 at 60 μg/ml pentamidine), co-treatment with 60 μg/ml pentamidine, FIG. 15
  EC50: ~0.94 µM
[6]; read-out: IC50(μM) of synthetic flavonoid, LePentR50, cytotoxicity of compound alone, 72 hrs
  IC50: > 200 µM
